Each compound was assayed against T1, human GLP-1 receptor (Homo sapiens, UniProt P43220) (assay: In vitro potency (AlphaScreen cAMP, membranes)). Conditions: cAMP formation in membranes from BHK467-12A cells expressing human GLP-1 receptor; read-out: In vitro potency (AlphaScreen) EC50.
T1 construct: expressed in transfected cells; host or cells: BHK cells, clone FCW467-12A/KZ10-1 (parent line BHKTS13), further transfected with CRE luciferase
Format: biochemical
Procedure: The purpose of this example is to test the activity, or potency, of the GLP-1 derivatives in vitro.
Purified plasma membranes from a stable transfected cell line, BHK467-12A (tk-ts13), expressing the human GLP-1 receptor were stimulated with the GLP-1 analogue or derivative in question, and the potency of cAMP production was measured using the AlphaScreen™ cAMP Assay Kit from Perkin Elmer Life Sciences. The basic principle of the AlphaScreen Assay is a competition between endogenous cAMP and exogenously added biotin-cAMP. The capture of cAMP is achieved by using a specific antibody conjugated to acceptor beads.
A stable transfected cell line and a high expressing clone were selected for screening. The cells were grown at 5% CO2 in DMEM, 5% FCS, 1% Pen/Strep (Penicillin/Streptomycin) and 0.5 mg/ml of the selection marker G418.
Cells at approximately 80% confluence were washed 2× with PBS and harvested with Versene (aqueous solution of the tetrasodium salt of ethylenediaminetetraacetic acid), centrifuged 5 min at 1000 rpm and the supernatant removed. The additional steps were all performed on ice. The cell pellet was homogenised by the Ultrathurax for 20-30 s in 10 ml of Buffer 1 (20 mM Na-HEPES, 10 mM EDTA, pH=7.4), centrifuged 15 min at 20,000 rpm and the pellet resuspended in 10 ml of Buffer 2 (20 mM Na-HEPES, 0.1 mM EDTA, pH=7.4). The suspension was homogenised for 20-30 s and centrifuged 15 min at 20,000 rpm. Suspension in Buffer 2, homogenisation and centrifugation was repeated once and the membranes were resuspended in Buffer 2. The protein concentration was determined and the membranes stored at −80° C. until use.
The assay was performed in flat-bottom 96-well plates (Costar cat. no:3693). The final volume per well was 50 μl.
AlphaScreen cAMP Assay Kit from Perkin Elmer Life Sciences (cat. No: 6760625M); containing Anti-cAMP Acceptor beads (10 U/μl), Streptavidin Donor beads (10 U/μl) and Biotinylated-cAMP (133 U/μl).
AlphaScreen Buffer, pH=7.4: 50 mM TRIS-HCl (Sigma, cat.no: T3253); 5 mM HEPES (Sigma, cat.no: H3375); 10 mM MgCl2, 6H2O (Merck, cat.no: 5833); 150 mM NaCl (Sigma, cat.no: S9625); 0.01% Tween (Merck, cat.no: 822184). The following was added to the AlphaScreen Buffer prior to use (final concentrations indicated): BSA (Sigma, cat. no. A7906): 0.1%; IBMX (Sigma, cat. no. 15879): 0.5 mM; ATP (Sigma, cat. no. A7699): 1 mM; GTP (Sigma, cat. no. G8877): 1 uM.
cAMP standard (dilution factor in assay=5): cAMP Solution: 5 μL of a 5 mM cAMP-stock+495 μL AlphaScreen Buffer.
Membranes were prepared from hGLP-1/BHK 467-12A cells with a concentration of 6 μg/well corresponding to 0.6 mg/ml (the amount of membranes used pr. well may vary)
“No membranes”: Acceptor Beads (15 μg/ml final) in AlphaScreen buffer
“6 μg/well membranes”: membranes+Acceptor Beads (15 μg/ml final) in AlphaScreen buffer
An aliquot (10 μl) of “No membranes” was added to the cAMP standard (per well in duplicate wells) and the positive and negative controls
An aliquot (10 μl) of “6 μg/well membranes” was added to GLP-1 and analogues (per well in duplicate or triplicate wells)
Pos. Control: 10 μl “no membranes”+10 μl AlphaScreen Buffer
Neg. Control: 10 μl “no membranes”+10 μl cAMP Stock Solution (50 μM)
As the beads are sensitive to direct light, any handling was in the dark (as dark as possible), or in green light. All dilutions were made on ice.
1. Make the AlphaScreen Buffer.
2. Dissolve and dilute the GLP-1/Analogues/cAMP standard in AlphaScreen Buffer.
3. Make the Donor Beads Solution by mixing streptavidin donor beads (2 units/well) and biotinylated cAMP (1.2 units/well) and incubate 20-30 min in the dark at room temperature
4. Add the cAMP/GLP-1/Analogues to the plate: 10 μl per well.
5. Prepare membrane/Acceptor Beads solution and add this to the plates: 10 μl per well.
6. Add the Donor Beads: 30 μl per well.
7. Wrap the plate in aluminum foil and incubate on the shaker for 3 hours (very slowly) at RT.

T1 sequence (P43220 24-463): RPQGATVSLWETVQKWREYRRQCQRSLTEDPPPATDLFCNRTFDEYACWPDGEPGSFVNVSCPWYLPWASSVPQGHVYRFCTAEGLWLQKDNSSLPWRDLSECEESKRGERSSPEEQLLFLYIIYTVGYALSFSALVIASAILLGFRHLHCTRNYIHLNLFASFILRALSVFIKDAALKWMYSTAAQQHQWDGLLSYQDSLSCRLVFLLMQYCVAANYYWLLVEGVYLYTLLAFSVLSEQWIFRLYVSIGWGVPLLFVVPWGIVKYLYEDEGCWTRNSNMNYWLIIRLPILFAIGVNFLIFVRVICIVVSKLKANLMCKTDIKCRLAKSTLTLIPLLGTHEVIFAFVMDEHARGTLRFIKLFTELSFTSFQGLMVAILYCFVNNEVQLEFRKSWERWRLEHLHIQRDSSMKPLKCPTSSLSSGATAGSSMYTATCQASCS

| EC50 [pM] | SMILES |
| --- | --- |
| 492 | CC[C@H](C)[C@H](NC(=O)[C@H](Cc1ccccc1)NC(=O)[C@H](CCC(=O)O)NC(=O)[C@H](CCCCNC(=O)[C@@H](N)CCCCNC(=O)COCCOCCNC(=O)COCCOCCNC(=O)CC[C@H](NC(=O)CCCCCCCCCCCCCCC(=O)O)C(=O)O)NC(=O)[C@H](C)NC(=O)[C@H](C)NC(=O)[C@H](CCC(N)=O)NC(=O)CNC(=O)[C@H](CCC(=O)O)NC(=O)[C@H](CC(C)C)NC(=O)[C@H](Cc1ccc(O)cc1)NC(=O)[C@H](CO)NC(=O)[C@H](CO)NC(=O)[C@@H](NC(=O)[C@H](CC(=O)O)NC(=O)[C@H](CO)NC(=O)[C@@H](NC(=O)[C@H](Cc1ccccc1)NC(=O)[C@@H](NC(=O)CNC(=O)[C@H](CCC(=O)O)NC(=O)C(C)(C)NC(=O)[C@@H](N)Cc1c[nH]cn1)[C@@H](C)O)[C@@H](C)O)C(C)C)C(=O)N[C@@H](C)C(=O)N[C@@H](Cc1c[nH]c2ccccc12)C(=O)N[C@@H](CC(C)C)C(=O)N[C@H](C(=O)N[C@@H](CCCNC(=N)N)C(=O)NCC(=O)N[C@@H](CCCNC(=N)N)C(=O)N[C@@H](CCCCNC(=O)[C@@H](N)CCCCNC(=O)COCCOCCNC(=O)COCCOCCNC(=O)CC[C@H](NC(=O)CCCCCCCCCCCCCCC(=O)O)C(=O)O)C(=O)O)C(C)C [Example 10, N^ε26-[(2S)-2-amino-6-[[2-[2-[2-[[2-[2-[2-[[(4S)-4-carboxy-4-(15-carboxypentadecanoylamino)butanoyl]amino]ethoxy]ethoxy]acetyl]amino]ethoxy]ethoxy]acetyl]amino]hexanoyl], N^ε37-[(2S)-2-amino-6-[[2-[2-[2-[[2-[2-[2-[[(4S)-4-carboxy-4-(15-carboxypentadecanoylamino)butanoyl]amino]ethoxy]ethoxy]acetyl]amino]ethoxy]ethoxy]acetyl]amino]hexanoyl]-[Aib^8,Arg^34,Lys^37]-GLP-1-(7-37)-peptide] |
| 227 | CC[C@H](C)[C@H](NC(=O)[C@H](Cc1ccccc1)NC(=O)[C@H](CCC(=O)O)NC(=O)[C@H](CCCCNC(=O)[C@@H](N)CCCCNC(=O)[C@@H](N)CCCCNC(=O)CC[C@H](NC(=O)CC[C@H](NC(=O)CCCCCCCCCCCCCCC(=O)O)C(=O)O)C(=O)O)NC(=O)[C@H](C)NC(=O)[C@H](C)NC(=O)[C@H](CCC(N)=O)NC(=O)CNC(=O)[C@H](CCC(=O)O)NC(=O)[C@H](CC(C)C)NC(=O)[C@H](Cc1ccc(O)cc1)NC(=O)[C@H](CO)NC(=O)[C@H](CO)NC(=O)[C@@H](NC(=O)[C@H](CC(=O)O)NC(=O)[C@H](CO)NC(=O)[C@@H](NC(=O)[C@H](Cc1ccccc1)NC(=O)[C@@H](NC(=O)CNC(=O)[C@H](CCC(=O)O)NC(=O)C(C)(C)NC(=O)[C@@H](N)Cc1c[nH]cn1)[C@@H](C)O)[C@@H](C)O)C(C)C)C(=O)N[C@@H](C)C(=O)N[C@@H](Cc1c[nH]c2ccccc12)C(=O)N[C@@H](CC(C)C)C(=O)N[C@H](C(=O)N[C@@H](CCCNC(=N)N)C(=O)NCC(=O)N[C@@H](CCCNC(=N)N)C(=O)N[C@@H](CCCCNC(=O)[C@@H](N)CCCCNC(=O)[C@@H](N)CCCCNC(=O)CC[C@H](NC(=O)CC[C@H](NC(=O)CCCCCCCCCCCCCCC(=O)O)C(=O)O)C(=O)O)C(=O)O)C(C)C [Example 12, N^ε26-[(2S)-2-amino-6-[[(2S)-2-amino-6-[[(4S)-4-carboxy-4-[[(4S)-4-carboxy-4-(15-carboxypentadecanoylamino)butanoyl]amino]butanoyl]amino]hexanoyl]amino]hexanoyl], N^ε37-[(2S)-2-amino-6-[[(2S)-2-amino-6-[[(4S)-4-carboxy-4-[[(4S)-4-carboxy-4-(15-carboxypentadecanoylamino)butanoyl]amino]butanoyl]amino]hexanoyl]amino]hexanoyl]-[Aib^8,Arg^34, Lys^37]-GLP-1-(7-37)-peptide] |
| 385 | CC[C@H](C)[C@H](NC(=O)[C@H](Cc1ccccc1)NC(=O)[C@H](CCC(=O)O)NC(=O)[C@H](CCCCNC(=O)[C@@H](N)CCCCNC(=O)CC[C@H](NC(=O)CC[C@H](NC(=O)CC[C@H](NC(=O)CCCCCCCCCCCCCCC(=O)O)C(=O)O)C(=O)O)C(=O)O)NC(=O)[C@H](C)NC(=O)[C@H](C)NC(=O)[C@H](CCC(N)=O)NC(=O)CNC(=O)[C@H](CCC(=O)O)NC(=O)[C@H](CC(C)C)NC(=O)[C@H](Cc1ccc(O)cc1)NC(=O)[C@H](CO)NC(=O)[C@H](CO)NC(=O)[C@@H](NC(=O)[C@H](CC(=O)O)NC(=O)[C@H](CO)NC(=O)[C@@H](NC(=O)[C@H](Cc1ccccc1)NC(=O)[C@@H](NC(=O)CNC(=O)[C@H](CCC(=O)O)NC(=O)C(C)(C)NC(=O)[C@@H](N)Cc1c[nH]cn1)[C@@H](C)O)[C@@H](C)O)C(C)C)C(=O)N[C@@H](C)C(=O)N[C@@H](Cc1c[nH]c2ccccc12)C(=O)N[C@@H](CC(C)C)C(=O)N[C@H](C(=O)N[C@@H](CCCNC(=N)N)C(=O)NCC(=O)N[C@@H](CCCNC(=N)N)C(=O)N[C@@H](CCCCNC(=O)[C@@H](N)CCCCNC(=O)CC[C@H](NC(=O)CC[C@H](NC(=O)CC[C@H](NC(=O)CCCCCCCCCCCCCCC(=O)O)C(=O)O)C(=O)O)C(=O)O)C(=O)O)C(C)C [Example 13, N^ε26-[(2S)-2-amino-6-[[(4S)-4-carboxy-4-[[(4S)-4-carboxy-4-[[(4S)-4-carboxy-4-(15-carboxypentadecanoylamino)butanoyl]amino]butanoyl]amino]butanoyl]amino]hexanoyl], N^ε37-[(2S)-2-amino-6-[[(4S)-4-carboxy-4-[[(4S)-4-carboxy-4-[[(4S)-4-carboxy-4-(15-carboxypentadecanoylamino)butanoyl]amino]butanoyl]amino]butanoyl]amino]hexanoyl]-[Aib^8,Arg^34,Lys^37]-GLP-1-(7-37)-peptide] |
